Source: patent US3962317A, “D-3,6-Diaminohexanoic acid 2-(carboxymethyl)-2-methylhydrazide, process of preparing and intermediates of said process” (priority 1974, dated 1976)
≈ marks a conversion by molar mass, not a printed value.

Columns and labels:
[1] = test system: Escherichia coli K-1972-1; assay: MIC, agar dilution (called standard agar well diffusion assay); format: cell-based; conditions: K19721, nutrient agar, 37°C, 24 hours
Procedure: (§1) In this assay, the minimal inhibitory concentration (MIC) was determined by using twofold dilutions of the compound in nutrient agar. One ml. of each dilution was placed in a sterile Petri dish; 9 ml. of nutrient agar was added to each dish. Five hour cultures of the indicated organism in Trypticase Soy Broth were diluted 10^^-2 in nutrient broth. This dilution of each culture was transferred to the surface of the plates by using a Steers replicating device. […] The MIC of D-3,6-diaminohexanoic acid 2-(carboxymethyl)-2 -methylhydrazide against the indicated organisms are set forth in Table I below.

[2] = test system: Herellea vaginicola Hughes; assay: as above; format: cell-based; conditions: nutrient agar, 37°C, 24 hours
Procedure: as §1

[3] = test system: Staphylococcus aureus Morton No. 1169; assay: as above; format: cell-based; conditions: nutrient agar, 37°C, 24 hours
Procedure: as §1

[4] = test system: Herellea vaginicola Washington 885-863; assay: as above; format: cell-based; conditions: nutrient agar, 37°C, 24 hours
Procedure: as §1

[5] = test system: Salmonella enteritidis K-1972; assay: as above; format: cell-based; conditions: Salmonella enterica, nutrient agar, 37°C, 24 hours
Procedure: as §1

[6] = test system: Shigella flexneri (5) Citarella; assay: as above; format: cell-based; conditions: nutrient agar, 37°C, 24 hours
Procedure: as §1

[7] = test system: Klebsiella pneumoniae K-1972-2; assay: as above; format: cell-based; conditions: K19722, nutrient agar, 37°C, 24 hours
Procedure: as §1

[8] = test system: Staphylococcus aureus Jackson No. 4; assay: as above; format: cell-based; conditions: nutrient agar, 37°C, 24 hours
Procedure: as §1

[9] = test system: Shigella flexneri (2a) RB; assay: as above; format: cell-based; conditions: nutrient agar, 37°C, 24 hours
Procedure: as §1

Serratia marcescens K132 = assay: as above; format: cell-based; conditions: nutrient agar, 37°C, 24 hours
Procedure: as §1

[10] = test system: Salmonella typhimurium K-1972; assay: as above; format: cell-based; conditions: Salmonella enterica, nutrient agar, 37°C, 24 hours
Procedure: as §1

[11] = test system: Pseudomonas aeruginosa 12-4-4; assay: as above; format: cell-based; conditions: 1244, nutrient agar, 37°C, 24 hours
Procedure: as §1

[12] = test system: Pseudomonas aeruginosa PA7; assay: as above; format: cell-based; conditions: nutrient agar, 37°C, 24 hours
Procedure: as §1

[13] = test system: Proteus mirabilis K-1972-16; assay: as above; format: cell-based; conditions: K197216, nutrient agar, 37°C, 24 hours
Procedure: as §1

[14] = test system: Proteus mirabilis K-1972-12; assay: as above; format: cell-based; conditions: K197212, nutrient agar, 37°C, 24 hours
Procedure: as §1

[15] = test system: Serratia marcescens Finland; assay: as above; format: cell-based; conditions: nutrient agar, 37°C, 24 hours
Procedure: as §1

Proteus vulgaris K-1972 = assay: as above; format: cell-based; conditions: K1972, nutrient agar, 37°C, 24 hours
Procedure: as §1

Klebsiella pneumoniae AD [16] = assay: as above; format: cell-based; conditions: nutrient agar, 37°C, 24 hours
Procedure: as §1

[17] = test system: Proteus mirabilis No. 4361; assay: as above; format: cell-based; conditions: nutrient agar, 37°C, 24 hours
Procedure: as §1

Escherichia coli No. 311 = assay: as above; format: cell-based; conditions: nutrient agar, 37°C, 24 hours
Procedure: as §1

[18] = test system: Enterococcus (S. faecalis) Isenberg; assay: as above; format: cell-based; conditions: nutrient agar, 37°C, 24 hours
Procedure: as §1

[19] = test system: Enterobacter sp. K-1972-1; assay: as above; format: cell-based; conditions: SP.K19721, nutrient agar, 37°C, 24 hours
Procedure: as §1

[20] = test system: Escherichia coli K-1972-2; assay: as above; format: cell-based; conditions: K19722, nutrient agar, 37°C, 24 hours
Procedure: as §1

[21] = test system: Trichophyton mentagrophytes E11; assay: Zone of inhibition, standard agar well diffusion assay; format: cell-based
Procedure: as §1
(§2) In another representative operation, the standard agar well diffusion assay was repeated with D-3,6-diaminohexanoic acid 2-(carboxymethyl)-2-methylhydrazide except that after incubation the zone of inhibition against the indicated organism is millimeters was determined.

[22] = test system: Pseudomonas aeruginosa ATCC 10145; assay: as above; format: cell-based
Procedure: as §1, §2

[23] = test system: Microsporum canis ATCC 10214; assay: as above; format: cell-based
Procedure: as §1, §2

[24] = test system: Mycobacterium smegmatis ATCC 606; assay: as above; format: cell-based
Procedure: as §1, §2

Escherichia coli 311 [25] = assay: as above; format: cell-based
Procedure: as §1, §2

Candida albicans E 83 = assay: as above; format: cell-based
Procedure: as §1, §2

[26] = test system: Cryptococcus neoformans E 183; assay: as above; format: cell-based
Procedure: as §1, §2

[27] = test system: Trichophyton tonsurans NIH 662; assay: as above; format: cell-based
Procedure: as §1, §2

[28] = test system: Staphylococcus aureus Rose ATCC 14154; assay: as above; format: cell-based
Procedure: as §1, §2

Klebsiella pneumoniae AD [29] = assay: as above; format: cell-based
Procedure: as §1, §2

[30] = test system: Salmonella typhosa ATCC 6539; assay: as above; format: cell-based
Procedure: as §1, §2

[31] = test system: Proteus vulgaris ATCC 9484; assay: as above; format: cell-based
Procedure: as §1, §2

[32] = test system: Enterobacter aerogenes 75; assay: as above; format: cell-based
Procedure: as §1, §2

[33] = test system: standard laboratory microorganisms; assay: Standard agar well diffusion assay against a variety of standard laboratory microorganisms; format: cell-based
Proteus mirabilis 4671 = assay: Systemic lethal infection in mice, Proteus mirabilis 4671; format: in vivo, Charles River CD1 female mice; conditions: for Alive/Total Mice Tested 7 Days After Infection: 1 day prior to and immediately after infection
Procedure: (§3) The infections were administered to the mice as follows:
Proteus mirabilis 4671: intraperitoneal injection of a lethal dose consisting of 0.5 ml. of a 10^^-1.6 trypticase soy dilution of a 5 hour trypticase soy broth culture.
(§4) The D-3,6-diaminohexanoic acid 2-(carboxymethyl)-2-methylhydrazide was administered as follows:
Proteus mirabilis 4671: 0.5 ml. dose suspended in 0.2% aqueous agar was administered to groups of Charles River CD1 female mice, weighing 18-22 gm., 1 day prior to infection and then in a second dose immediately after infection at the levels indicated in Table III below.

Escherichia coli 311 [34] = assay: Systemic lethal infection in mice, Escherichia coli 311; format: in vivo, Charles River CD1 female mice; conditions: for Alive/Total Mice Tested 7 Days After Infection: immediately after infection
Procedure: as §3
Escherichia coli 311: intraperitoneal infection of a lethal dose consisting of 0.5 ml. of a 10^^-3 trypticase soy dilution of a 5 hour trypticase soy broth culture.
as §4
Escherichia coli 311: 0.5 ml. dose suspended in 0.2% aqueous agar was administered to groups of Charles River CD1 female mice, weighing 18-22 gm., immediately after infection at the levels indicated in Table III below.

Structure (SMILES): CN(CC(=O)O)NC(=O)C[C@H](N)CCCN [D-3,6-diaminohexanoic acid 2-(carboxymethyl)-2-methylhydrazide]
- MIC [1]: 16 µg/mL (≈ 68.9 µM)
- MIC [2]: 32 µg/mL (≈ 138 µM)
- MIC [3]: 32 µg/mL (≈ 138 µM)
- MIC [4]: 32 µg/mL (≈ 138 µM)
- MIC [5]: 32 µg/mL (≈ 138 µM)
- MIC [6]: 64 µg/mL (≈ 276 µM)
- MIC [7]: 32 µg/mL (≈ 138 µM)
- MIC [8]: 64 µg/mL (≈ 276 µM)
- MIC [9]: 4 µg/mL (≈ 17.2 µM)
- MIC (Serratia marcescens K132): 32 µg/mL (≈ 138 µM)
- MIC [10]: 32 µg/mL (≈ 138 µM)
- MIC [11]: 64 µg/mL (≈ 276 µM)
- MIC [12]: 64 µg/mL (≈ 276 µM)
- MIC [13]: 64 µg/mL (≈ 276 µM)
- MIC [14]: 64 µg/mL (≈ 276 µM)
- MIC [15]: 64 µg/mL (≈ 276 µM)
- MIC (Proteus vulgaris K-1972): 64 µg/mL (≈ 276 µM)
- MIC (Klebsiella pneumoniae AD [16]): 4 µg/mL (≈ 17.2 µM)
- MIC [17]: 64 µg/mL (≈ 276 µM)
- MIC (Escherichia coli No. 311): 16 µg/mL (≈ 68.9 µM)
- MIC [18]: > 128 µg/mL
- MIC [19]: 32 µg/mL (≈ 138 µM)
- MIC [20]: 16 µg/mL (≈ 68.9 µM)
- Zone of Inhibition [21]: 100 mm.
- Zone of Inhibition [22]: 50 mm.
- Zone of Inhibition [23]: 250 mm.
- Zone of Inhibition [24]: 100 mm.
- Zone of Inhibition (Escherichia coli 311 [25]): 25 mm.
- Zone of Inhibition (Candida albicans E 83): 50 mm.
- Zone of Inhibition [26]: 10 mm.
- Zone of Inhibition [27]: 25 mm.
- Zone of Inhibition [28]: 100 mm.
- Zone of Inhibition (Klebsiella pneumoniae AD [29]): 10 mm.
- Zone of Inhibition [30]: 25 mm.
- Zone of Inhibition [31]: 25 mm.
- Zone of Inhibition [32]: 50 mm.
- antibacterial and antifungal activity in vitro [33]: broad-spectrum antibacterial and antifungal activity in vitro
- Alive/Total Mice Tested 7 Days After Infection (Proteus mirabilis 4671; 64 mg./kg. subcutaneous): 5/5
- Alive/Total Mice Tested 7 Days After Infection (Proteus mirabilis 4671; 128 mg./kg. subcutaneous): 5/5
- Alive/Total Mice Tested 7 Days After Infection (Proteus mirabilis 4671; 256 mg./kg. subcutaneous): 5/5
- in vivo activity against systemic lethal infection (Proteus mirabilis 4671; Proteus mirabilis infection in mice): controlled systemic lethal infections
- Alive/Total Mice Tested 7 Days After Infection (Escherichia coli 311 [34]; 4 mg./kg. subcutaneous): 0/5
- Alive/Total Mice Tested 7 Days After Infection (Escherichia coli 311 [34]; 8 mg./kg. subcutaneous): 0/5
- Alive/Total Mice Tested 7 Days After Infection (Escherichia coli 311 [34]; 16 mg./kg. subcutaneous): 0/5
- Alive/Total Mice Tested 7 Days After Infection (Escherichia coli 311 [34]; 32 mg./kg. subcutaneous): 3/5
- Alive/Total Mice Tested 7 Days After Infection (Escherichia coli 311 [34]; 64 mg./kg. subcutaneous): 5/5
- in vivo activity against systemic lethal infection (Escherichia coli 311 [34]; Escherichia coli infection in mice): controlled systemic lethal infections
